Laboratory results: ChEMBL document CHEMBL1201862, “PubChem BioAssay data set” (2004)
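The compound was tested at five concentrations on cells cultured in 96-well plates, with a 48-hour exposure period. GI50 marks 50% less growth.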 Calls of active or inactive are those of the source. Rule as the data show it: active = GI50 up to about 1.1 µM and inactive = higher.

Assays:
Experiment in all cases: NCI anticancer screen, dose series, 48 h
SNB-19 = tested on: SNB-19
RXF 393 = tested on: RXF 393
DMS-273 = tested on: DMS-273
SF-539 = tested on: SF-539
TK-10 = tested on: TK-10
HOP-62 = tested on: HOP-62
MOLT-4 = tested on: MOLT-4
OVCAR-3 = tested on: OVCAR-3
A549 = tested on: A549
NCI-H522 = tested on: NCI-H522
IGROV-1 = tested on: IGROV-1
SK-MEL-28 = tested on: SK-MEL-28
HCT-116 = tested on: HCT-116
OVCAR-8 = tested on: OVCAR-8
HCT-15 = tested on: HCT-15
UO-31 = tested on: UO-31
NCI-H23 = tested on: NCI-H23

Row | SMILES | GI50 (SNB-19) | GI50 (RXF 393) | GI50 (DMS-273) | GI50 (SF-539) | GI50 (TK-10) | GI50 (HOP-62) | GI50 (MOLT-4) | GI50 (OVCAR-3) | GI50 (A549) | GI50 (NCI-H522) | GI50 (IGROV-1) | GI50 (SK-MEL-28) | GI50 (HCT-116) | GI50 (OVCAR-8) | GI50 (HCT-15) [µM] | GI50 (UO-31) | GI50 (NCI-H23)
1 | Clc1cccc(-c2nnc(-c3nn(-c4ccccc4)c4nc5ccccc5nc34)o2)c1 | > 100 µM (inactive) | 56.2 µM (inactive) | > 100 µM (inactive) | > 100 µM (inactive) | > 100 µM (inactive) | > 100 µM (inactive) | > 100 µM (inactive) | > 100 µM (inactive) | > 100 µM (inactive) | > 100 µM (inactive) | > 100 µM (inactive) | > 100 µM (inactive) | > 100 µM (inactive) | > 100 µM (inactive) | > 100 | > 100 µM (inactive) | > 100 µM (inactive)
2 | CC1(C)CC(=O)C2=C(C1)S/C(=C1/SC3=C(S1)C(=O)CC(C)(C)C3)S2 | > 251 µM (inactive) | > 251 µM (inactive) | > 251 µM (inactive) | > 251 µM (inactive) | > 251 µM (inactive) | > 251 µM (inactive) | > 251 µM (inactive) | > 251 µM (inactive) | > 251 µM (inactive) | > 251 µM (inactive) | > 251 µM (inactive) | > 251 µM (inactive) | > 251 µM (inactive) | > 251 µM (inactive) | > 251 | > 251 µM (inactive) | > 251 µM (inactive)
3 | CC(=O)/C=C/c1cccc(N=S)c1 | > 43.2 µM (inactive) | 17.6 µM (inactive) | 7.06 µM (inactive) | 5.9 µM (inactive) | > 52.8 µM (inactive) | > 63.5 µM (inactive) | > 40.1 µM (inactive) | 19.2 µM (inactive) | 26.5 µM (inactive) | 18.6 µM (inactive) | 19.2 µM (inactive) | 16.5 µM (inactive) | 1.39 µM (inactive) | 12.2 µM (inactive) | 8.79 | 39.4 µM (inactive) | 30.7 µM (inactive)
4 | COC(=O)/C=C/c1cc(OC)c(OC)c(OC)c1 | > 100 µM (inactive) | > 100 µM (inactive) | > 100 µM (inactive) | > 100 µM (inactive) | > 100 µM (inactive) | > 100 µM (inactive) | > 100 µM (inactive) | > 100 µM (inactive) | > 100 µM (inactive) | 46.5 µM (inactive) | > 100 µM (inactive) | > 100 µM (inactive) | > 100 µM (inactive) | > 100 µM (inactive) | > 100 | 69.3 µM (inactive) | > 100 µM (inactive)
5 | C1OC1CO[C@@H]1CO[C@H]2[C@@H]1OC[C@H]2OCC1CO1 (some centres not stated) | > 100 µM (inactive) | > 100 µM (inactive) | > 100 µM (inactive) | > 100 µM (inactive) | > 100 µM (inactive) | > 100 µM (inactive) | 78.2 µM (inactive) | > 100 µM (inactive) | > 100 µM (inactive) | > 100 µM (inactive) | > 100 µM (inactive) | > 100 µM (inactive) | > 100 µM (inactive) | > 100 µM (inactive) | > 100 | > 100 µM (inactive) | > 100 µM (inactive)
6 | O=C(/C=C1/Nc2ccc([N+](=O)[O-])cc2NC1O)c1cccc([N+](=O)[O-])c1 (configuration not stated) | > 100 µM (inactive) | 23.6 µM (inactive) | 16.3 µM (inactive) | 20.7 µM (inactive) | 35 µM (inactive) | 83.9 µM (inactive) | 64.4 µM (inactive) | 35.6 µM (inactive) | 58.7 µM (inactive) | 18.7 µM (inactive) | > 100 µM (inactive) | 39.8 µM (inactive) | 26.2 µM (inactive) | 19.1 µM (inactive) | 23.5 | 35.9 µM (inactive) | 36.6 µM (inactive)
